Laboratory results as given in paper PMC9147789, “Development and Validation of a Novel LC-MS/MS Method for the Simultaneous Determination of Abemaciclib, Palbociclib, Ribociclib, Anastrozole, Letrozole, and Fulvestrant in Plasma Samples: A Prerequisite for Personalized Breast Cancer Treatment” (Pharmaceuticals, 2022).

Key:
[1] = LC-MS/MS quantitation of drugs in single-point patient plasma samples (therapeutic drug monitoring); format: in vivo, human
Procedure: Samples from ten women (ages 35 to 78, median 50.5 years) receiving regular treatment with a combination of a CDK4/6 inhibitor (PAL, RIB or ABE) and endocrine therapy (ANA, LET, FUL or exemestane, EXE) were obtained and analyzed using this LC-MS method. The samples were mostly taken in the elimination phase, during the patients’ regular visit to the hospital before the next dose administration, except in the case of patient 4 (sampling 1 h after dose administration). The aromatase inhibitors and ABE are continuously administered as single daily doses, FUL is a once-monthly intramuscular injection, and the dosing regimen of PAL and RIB involves a week off treatment every 21 days to minimize treatment-induced neutropenia.
The samples were analyzed against freshly prepared calibration curves. The results are listed in Table 7, while the accompanying chromatograms and mass spectra are included in the Supplementary Materials, Section 1, Figures S1–S29.
Healthy and patient blood samples were collected and pre-treated at the University Hospital Centre Zagreb, with signed informed consent. Patients receiving a combination of a CDK4/6 inhibitor and endocrine therapy as regular treatment for at least 4 months were enrolled.
Whole blood was collected in containers with K2-EDTA anticoagulant and centrifuged for 10 min at 1500 g; the supernatant was then withdrawn and stored at −18 °C (blank plasma) or −80 °C (patients’ plasma). Hemolyzed plasma was obtained by briefly freezing a whole blood sample at −18 °C before continuing with the procedure.
Calibration and QC samples were prepared by diluting 5 µL of the appropriate working solutions of the analytes with 45 µL of blank plasma in 1.5 mL polypropylene centrifuge tubes. In case of patient sample analysis, an aliquot of 50 µL of patient plasma was used. Proteins were precipitated by adding 200 µL of ACN, after which the samples were vortex-mixed for 10 s and centrifuged at 2000 g for 5 min. The resulting supernatant was collected and 200 µL was evaporated to dryness in a vacuum evaporator at room temperature. The dry residue was dissolved in 40 µL of 65% methanol, while 5 µL was injected into the chromatographic system.

[2] = Stability of the analytes in plasma (bench top, autosampler, freeze-thaw, long-term); format: physicochemical, human; conditions: for Stability Bias (%) 1 FT Cycle (30 min, −18–25 °C) / Stability Bias (%) 2 FT Cycles (30 min, −18–25 °C) / Stability Bias (%) 3 FT Cycles (30 min, −18–25 °C) / Stability Bias (%) Long-Term (2 Weeks, −18 °C): plasma; for Stability Bias (%) 1 FT Cycle (30 min, −18–25 °C) / Stability Bias (%) 2 FT Cycles (30 min, −18–25 °C) / Stability Bias (%) 3 FT Cycles (30 min, −18–25 °C) / Stability Bias (%) Long-Term (2 Weeks, −18 °C) / Stability Bias (%) Autosampler (10 h, 10 °C): N = 3; for Stability Bias (%) Autosampler (10 h, 10 °C): processed plasma sample; for Stability Bias (%) Bench Top (2 h, 25 °C): unprocessed plasma, N = 3, vs fresh QC
Procedure: Stability of the stock and working solutions was determined in the preliminary studies. […] Patient plasma samples were stored long-term at −80 °C. Since adequate stability of plasma samples was proven at −18 °C, it was deemed acceptable at lower temperatures as well. Lower- and higher-concentration QC samples were prepared in triplicate for each condition and time point and were analyzed against QC samples freshly prepared in triplicate.

[3] = plasma; cited from earlier work
[4] = design: method as in PMID 28540640; conditions: plasma; reported PK/PD studies; cited from earlier work
[5] = higher QC level (RIB 2500, ABE 1500, PAL 250, ANA 100, LET 250, FUL 500 ng/mL)
[6] = lower QC level (RIB 62.5, ABE 37.5, PAL 6.2, ANA 2.5, LET 6.25, FUL 12.5 ng/mL)

Row | SMILES | Plasma Concentration ([1]; patient 1, ABE 300 mg daily, continuous, before next dose) [ng/mL] | Stability Bias (%) 1 FT Cycle (30 min, −18–25 °C) [2, 5] [%] | Stability Bias (%) 2 FT Cycles (30 min, −18–25 °C) [2, 5] [%] | Stability Bias (%) 3 FT Cycles (30 min, −18–25 °C) [2, 5] [%] | Stability Bias (%) Long-Term (2 Weeks, −18 °C) [2, 5] [%] | Stability Bias (%) 1 FT Cycle (30 min, −18–25 °C) [2, 6] [%] | Stability Bias (%) 2 FT Cycles (30 min, −18–25 °C) [2, 6] [%] | Stability Bias (%) 3 FT Cycles (30 min, −18–25 °C) [2, 6] [%] | Stability Bias (%) Long-Term (2 Weeks, −18 °C) [2, 6] [%] | Stability Bias (%) Autosampler (10 h, 10 °C) [2, 5] [%] | Stability Bias (%) Autosampler (10 h, 10 °C) [2, 6] [%] | Stability Bias (%) Bench Top (2 h, 25 °C) [2, 5] [%] | Stability Bias (%) Bench Top (2 h, 25 °C) [2, 6] [%] | Expected literature range Cmin–Cmax [3] | Minimal threshold concentration for efficacy [4] [ng/mL] | Plasma Concentration ([1]; patient 5, ANA 1 mg daily) [ng/mL] | Plasma Concentration ([1]; patient 7, FUL 500 mg monthly, intramuscular) [ng/mL] | Plasma Concentration ([1]; patient 8, FUL 500 mg monthly, intramuscular) [ng/mL] | Plasma Concentration ([1]; patient 9, FUL 500 mg monthly, intramuscular) [ng/mL] | Plasma Concentration ([1]; patient 10, FUL 500 mg monthly, intramuscular) [ng/mL]
1 | CCN1CCN(Cc2ccc(Nc3ncc(F)c(-c4cc(F)c5nc(C)n(C(C)C)c5c4)n3)nc2)CC1 [ABE, abemaciclib] | 425.79 | 9.37 | 5.68 | 1.13 | 3.09 | 13.23 | −7.43 | 14.07 | 7.60 | 14.88 | 11.51 | −0.10 | 9.09 | 102.65–1381 [25] ng/mL | 200 | – | – | – | – | –
2 | CC(C)(C#N)c1cc(Cn2cncn2)cc(C(C)(C)C#N)c1 [ANA, anastrozole] | – | 6.65 | 8.39 | −0.69 | −0.40 | −7.88 | −2.80 | −3.98 | 3.09 | 4.89 | 2.27 | −0.62 | −10.33 | 22–52.6 [27] ng/mL | – | 43.96 | – | – | – | –
3 | C[C@]12CC[C@@H]3c4ccc(O)cc4C[C@@H](CCCCCCCCC[S+]([O-])CCCC(F)(F)C(F)(F)F)[C@H]3[C@@H]1CC[C@@H]2O (stereo partly shown) [FUL, fulvestrant] | – | 2.23 | 4.49 | −7.51 | −1.62 | −14.59 | −13.24 | −8.90 | −5.01 | −8.06 | 7.38 | 2.32 | −9.36 | 16–25 [29] ng/mL | – | – | 20.73 | 22.69 | 22.13 | 24.56
